Assay results published in US8546381B2, “Bridged heterocyclic compounds and methods of use” (Medivation Technologies, Inc., priority 2008, dated 2013).
Several values for one entry are separate records, joined by “and”; a condition that tells them apart may be missing. Equal entries are not always repeated.

Legend:
[1] = target: T1, human recombinant adrenergic α2B receptor (Homo sapiens, UniProt P18089); assay: Adrenergic α2B radioligand binding ([3H]Rauwolscine); conditions: 1 μM; for inhibition at 1 µM: read-out: Adrenergic α2B, inhibition of ligand binding (1 μM)
T1 construct: expressed in transfected cells; host or cells: CHO-K1 cells
T1 sequence (P18089 1-450): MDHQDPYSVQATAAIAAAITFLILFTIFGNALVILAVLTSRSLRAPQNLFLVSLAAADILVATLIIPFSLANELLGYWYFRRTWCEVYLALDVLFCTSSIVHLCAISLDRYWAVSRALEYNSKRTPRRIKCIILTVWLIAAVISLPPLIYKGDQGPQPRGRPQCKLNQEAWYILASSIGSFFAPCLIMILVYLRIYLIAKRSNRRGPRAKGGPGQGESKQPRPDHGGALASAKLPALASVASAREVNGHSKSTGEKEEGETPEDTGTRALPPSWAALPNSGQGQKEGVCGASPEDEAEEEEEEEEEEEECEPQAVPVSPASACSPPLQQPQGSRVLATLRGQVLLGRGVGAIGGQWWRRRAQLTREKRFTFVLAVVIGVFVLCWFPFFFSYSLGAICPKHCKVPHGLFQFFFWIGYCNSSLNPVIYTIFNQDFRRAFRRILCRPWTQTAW
Experimental: To evaluate in radioligand binding assays the activity of compounds of the invention, human recombinant adrenergic α2B receptor expressed in Chinese hamster ovary (CHO-K1) cells (Uhlen S et al. Eur J. Pharmacol. 343(1):93, 1998) in a modified Tris-HCl buffer (50 mM Tris-HCl, pH 7.4, 12.5 mM MgCl2, 1 mM EDTA, 0.2% BSA) was used. Compounds of the invention were incubated with 2.5 nM [^3H]Rauwolscine for 60 minutes at 25° C. Non-specific binding was estimated in the presence of 10 μM Prozosin. Receptor proteins were filtered and washed, the filters were then counted to determine [^3H]Rauwolscine specifically bound. Compounds were screened at 1 μM or lower, using 1% DMSO as vehicle. Biochemical assay results are presented as the percent inhibition of specific binding in Table 3.

[2] = target: T2, human recombinant serotonin (5-Hydroxytryptamine) 5-HT2A receptor (Homo sapiens, UniProt P28223); assay: Serotonin 5-HT2A radioligand binding ([3H]Ketanserin); conditions: for inhibition at 1 µM: read-out: Serotonin 5-HT2A, inhibition of ligand binding (1 μM)
T2 construct: expressed in transfected cells; host or cells: CHO-K1 cells
Experimental: To evaluate in radioligand binding assays the activity of compounds of the invention, human recombinant serotonin (5-Hydroxytryptamine) 5-HT2A receptor expressed in Chinese hamster ovary (CHO-K1) cells (Bonhaus, D. W. et al. Br. J. Pharmacol. 115:622, 1995; Saucier, C. and Albert, P. R., J. Neurochem. 68:1998, 1997) in a 50 mM Tris-HCl buffer, pH 7.4, was used. Compounds of the invention were incubated with 0.5 nM [^3H]Ketanserin for 60 minutes at 25° C. Non-specific binding was estimated in the presence of 1 μM Mianserin. Receptor proteins were filtered and washed, the filters were then counted to determine [^3H]Ketanserin specifically bound. Compounds were screened at 1 μM or lower, using 1% DMSO as vehicle. Biochemical assay results are presented as the percent inhibition of specific binding in Table 4.

[3] = target: T3, human recombinant serotonin (5-Hydroxytryptamine) 5-HT2C receptor (Homo sapiens, UniProt P28335); assay: Serotonin 5-HT2C radioligand binding ([3H]Mesulergine); conditions: read-out: Serotonin 5-HT2C, inhibition of ligand binding (1 μM)
T3 construct: expressed in transfected cells; host or cells: CHO-K1 cells
T3 sequence (P28335 33-458): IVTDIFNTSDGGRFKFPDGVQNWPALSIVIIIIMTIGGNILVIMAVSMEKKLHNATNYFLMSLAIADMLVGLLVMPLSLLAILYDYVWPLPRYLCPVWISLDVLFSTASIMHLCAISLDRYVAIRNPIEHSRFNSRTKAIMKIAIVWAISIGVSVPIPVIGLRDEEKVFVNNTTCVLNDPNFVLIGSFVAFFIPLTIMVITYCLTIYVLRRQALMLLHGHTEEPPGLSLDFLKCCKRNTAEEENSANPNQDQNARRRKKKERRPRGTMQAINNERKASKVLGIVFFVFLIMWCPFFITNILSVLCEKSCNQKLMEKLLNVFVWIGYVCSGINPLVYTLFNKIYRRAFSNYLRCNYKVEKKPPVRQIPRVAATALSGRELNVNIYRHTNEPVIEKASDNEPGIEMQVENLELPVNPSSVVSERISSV
Experimental: To evaluate in radioligand binding assays the activity of compounds of the invention, human recombinant serotonin (5-Hydroxytryptamine) 5-HT2C receptor expressed in Chinese hamster ovary (CHO-K1) cells (Wolf, W. A. and Schutz, J. S., J. Neurochem. 69:1449, 1997) in a modified Tris-HCl buffer (50 mM Tris-HCl, pH 7.4, 0.1% Ascorbic Acid, 10 μM Pargyline) was used. Compounds of the invention were incubated with 1 nM [^3H]Mesulergine for 60 minutes at 25° C. Non-specific binding was estimated in the presence of 1 μM Mianserin. Receptor proteins were filtered and washed, the filters were then counted to determine [^3H]Mesulergine specifically bound. Compounds were screened at 1 μM or lower, using 1% DMSO as vehicle. Biochemical assay results are presented as the percent inhibition of specific binding in Table 4.

[4] = target: T4, human recombinant serotonin (5-Hydroxytryptamine) 5-HT6 receptor (Homo sapiens, UniProt P50406); assay: Serotonin 5-HT6 radioligand binding ([3H]LSD); conditions: for inhibition at 1 µM: read-out: Serotonin 5-HT6, inhibition of ligand binding (1 μM)
T4 construct: expressed in transfected cells; host or cells: human HeLa cells
Experimental: To evaluate in radioligand binding assays the activity of compounds of the invention, human recombinant serotonin (5-Hydroxytryptamine) 5-HT6 receptor expressed in human HeLa cells (Monsma, F. J. Jr. et al., Mol. Pharmacol. 43:320, 1993) in a modified Tris-HCl buffer (50 mM Tris-HCl, pH 7.4, 150 mM NaCl, 2 mM Ascorbic Acid, 0.001% BSA) was used. Compounds of the invention were incubated with 1.5 nM [3H]Lysergic acid diethylamide (LSD) for 120 minutes at 37° C. Non-specific binding was estimated in the presence of 5 μM Serotonin (5-HT). Receptor proteins were filtered and washed, the filters were then counted to determine [3H]LSD specifically bound. Compounds were screened at 1 μM or lower, using 1% DMSO as vehicle. Biochemical assay results are presented as the percent inhibition of specific binding in Table 4.

T4 sequence (P50406 whole entry): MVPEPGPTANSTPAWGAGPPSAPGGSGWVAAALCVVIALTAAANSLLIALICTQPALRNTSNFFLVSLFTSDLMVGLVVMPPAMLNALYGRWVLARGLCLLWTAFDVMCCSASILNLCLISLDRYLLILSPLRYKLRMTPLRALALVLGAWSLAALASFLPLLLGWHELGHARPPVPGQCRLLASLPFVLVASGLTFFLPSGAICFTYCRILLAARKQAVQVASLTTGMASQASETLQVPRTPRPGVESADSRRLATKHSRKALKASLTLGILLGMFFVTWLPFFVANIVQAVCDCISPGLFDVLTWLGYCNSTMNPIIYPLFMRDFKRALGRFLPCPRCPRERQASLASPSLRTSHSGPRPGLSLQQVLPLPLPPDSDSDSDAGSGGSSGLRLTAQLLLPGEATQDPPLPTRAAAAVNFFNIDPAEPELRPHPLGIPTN
T2 sequence (P28223 whole entry): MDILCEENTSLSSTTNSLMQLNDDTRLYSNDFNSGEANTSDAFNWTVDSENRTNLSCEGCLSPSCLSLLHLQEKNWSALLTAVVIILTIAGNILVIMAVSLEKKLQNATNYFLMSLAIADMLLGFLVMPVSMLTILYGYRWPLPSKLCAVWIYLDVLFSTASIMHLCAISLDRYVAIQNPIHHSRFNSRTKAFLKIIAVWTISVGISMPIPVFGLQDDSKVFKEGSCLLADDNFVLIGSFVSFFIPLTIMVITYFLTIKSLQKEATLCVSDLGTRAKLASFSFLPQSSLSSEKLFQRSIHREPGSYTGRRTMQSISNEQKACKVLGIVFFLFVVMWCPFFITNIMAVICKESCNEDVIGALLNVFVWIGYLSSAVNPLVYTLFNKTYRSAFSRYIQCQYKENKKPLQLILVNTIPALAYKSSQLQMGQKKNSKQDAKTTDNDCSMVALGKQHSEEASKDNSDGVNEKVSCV

| Compound | Adrenergic α2B, inhibition of ligand binding (1 μM) [1] [%] | inhibition at 1 µM [1] [%] | Serotonin 5-HT2A, inhibition of ligand binding (1 μM) ([2]; 1 µM) [%] | inhibition at 1 µM [2] [%] | inhibition at 1 µM [3] [%] | Serotonin 5-HT6, inhibition of ligand binding (1 μM) ([4]; 1 µM) | inhibition at 1 µM [4] [%] |
| --- | --- | --- | --- | --- | --- | --- | --- |
| Cc1ccc2c(c1)c1c(n2CCc2ccc(C(F)(F)F)nc2)CC2CCC1N2C (stereo not shown) [Compound 71] | 98.0 | 99 | 34.0 | 22 | -0.259 | 8.0/ % and 2.0% |  |
| CN1C2CCC1c1c(n(CCC(=O)O)c3ccc(Cl)cc13)C2 (stereo not shown) [Compound 72] |  | -8 |  | -6 | -4 |  | -1 |
| CN1C2CCC1c1c(n(CCC(N)=O)c3ccc(Cl)cc13)C2 (stereo not shown) [Compound 73] |  | 73 |  | -9 | 5 |  | -4 |
| CN1C2CCC1c1c(n(CCc3ccc(C(F)(F)F)nc3)c3cc(F)c(Cl)cc13)C2 (stereo not shown) [Compound 77] |  | 75 |  | 26 | -8 |  | 21 |
| Cc1ccc(CCn2c3c(c4cc(Cl)ccc42)C2CCC(C3)N2C)cn1 (stereo not shown) [Compound 79] |  | 87 |  | 28 | 13 |  | 10 |
| CN1C2CCC1c1c(n(CCc3cccnc3)c3ccc(Cl)cc13)C2 (stereo not shown) [Compound 80] |  | 95 |  | 33 | 16 |  | 6 |
| Cc1ccc2c(c1)c1c(n2CCc2cnc(C)nc2)CC2CCC1N2C (stereo not shown) [Compound 81] |  | 40 |  | -12 | 25 |  | 12 |
| Cc1ncc(CCn2c3c(c4cc(Cl)ccc42)C2CCC(C3)N2C)cn1 (stereo not shown) [Compound 82] |  | 47 |  | -16 | 60 |  | 13 |
| COc1ccc(CCn2c3c(c4cc(C)ccc42)C2CCC(C3)N2C)cc1 (stereo not shown) [Compound 83] |  | 94 |  | 71 | 82 |  | 23 |
| COc1ccc(CCn2c3c(c4cc(Cl)ccc42)C2CCC(C3)N2C)cc1 (stereo not shown) [Compound 84] |  | 98 |  | 77 | 93 |  | 13 |
| Cc1ccc2c(c1)c1c(n2CCCc2ccc(Cl)cc2)CC2CCC1N2C (stereo not shown) [Compound 85] |  | 92 |  | 95 | 89 |  | 52 |
| Cc1ccc2c(c1)c1c(n2CCc2cccnc2)CC2CCC1N2C (stereo not shown) [Compound 86] |  | 106 |  | 64 | 72 |  | 60 |
| CN1C2CCC1c1c(n(CCc3cncc(Cl)c3)c3ccc(Cl)cc13)C2 (stereo not shown) [Compound 87] |  | 98 |  | 51 | 30 |  | 23 |
| Cc1ccc2c(c1)c1c(n2CCc2cncc(Cl)c2)CC2CCC1N2C (stereo not shown) [Compound 88] |  | 104 |  | 55 | 31 |  | 25 |
| Cc1cncc(CCn2c3c(c4cc(Cl)ccc42)C2CCC(C3)N2C)c1 (stereo not shown) [Compound 89] |  | 76 |  | 27 | 26 |  | 10 |
| Cc1cncc(CCn2c3c(c4cc(C)ccc42)C2CCC(C3)N2C)c1 (stereo not shown) [Compound 90] |  | 75 |  | 30 | 27 |  | 6 |
| Cc1ccc2c(c1)c1c(n2CC(O)c2ccc(C)nc2)CC2CCC1N2C (stereo not shown) [Compound 91] |  | 67 |  | 2 | -4 |  | -5 |
| Cc1ccc(CCn2c3c(c4ccccc42)C2CCC(C3)N2C)cn1 (stereo not shown) [Compound 92] |  | 34 |  | 16 | 9 |  | 3 |
| Cc1ccc2c(c1)c1c(n2CC(=O)N2CCCCC2)CC2CCC1N2C (stereo not shown) [Compound 93] |  | -6 |  | -12 | 7 |  | -4 |
| CN1[C@@H]2CC[C@H]1c1c(n(CCc3ccc(F)cc3)c3ccc(F)cc13)C2 [Compound 94, (+)-(7S,10R)-2-Fluoro-5-(4-fluorophenethyl)-11-methyl-5,6,7,8,9,10-hexahydro-7,10-iminocyclohept[b]indole] |  | 102 |  | 81 | 75 |  | 21 |
| CN1[C@H]2CC[C@@H]1c1c(n(CCc3ccc(F)cc3)c3ccc(F)cc13)C2 [Compound 95, (−)-(7R,10S)-2-Fluoro-5-(4-fluorophenethyl)-11-methyl-5,6,7,8,9,10-hexahydro-7,10-iminocyclohept[b]indole] |  | 36 |  | 57 | 55 |  | 41 |
| CN1[C@@H]2CC[C@H]1c1c(n(CCc3ccc(C(F)(F)F)nc3)c3ccccc13)C2 [Compound 97] |  | 103 |  | 25 | 97 |  | 8 |
| CN1[C@@H]2CC[C@H]1c1c(n(CC(C)(O)c3ccc(F)cc3)c3ccccc13)C2 (stereo partly shown) [Compound 99] |  | 92 |  | 73 | 75 |  | -2 |
| CN1[C@@H]2CC[C@H]1c1c(n(CC(=O)N3CCCCC3)c3ccccc13)C2 [Compound 101] |  | 76 |  | 93 | 94 |  | 15 |
| Cc1ccc(CCn2c3c(c4ccccc42)[C@@H]2CC[C@H](C3)N2C)cn1 [Compound 102] |  | 42 |  | 11 | -6 |  | -5 |
| Cc1ccc2c(c1)c1c(n2CCC#N)CC2CCC1N2C (stereo not shown) [Compound 103] |  | 94 |  | 13 | 33 |  | 7 |
